Measured values from patent publication US20240182445A1 (ONO PHARMACEUTICAL CO., LTD., priority 2019, published 2024).

Molecular target: T1, human TREK-1 (Homo sapiens, UniProt O95069)
T1 construct: expressed in transfected cells
T1 sequence (O95069 1-426): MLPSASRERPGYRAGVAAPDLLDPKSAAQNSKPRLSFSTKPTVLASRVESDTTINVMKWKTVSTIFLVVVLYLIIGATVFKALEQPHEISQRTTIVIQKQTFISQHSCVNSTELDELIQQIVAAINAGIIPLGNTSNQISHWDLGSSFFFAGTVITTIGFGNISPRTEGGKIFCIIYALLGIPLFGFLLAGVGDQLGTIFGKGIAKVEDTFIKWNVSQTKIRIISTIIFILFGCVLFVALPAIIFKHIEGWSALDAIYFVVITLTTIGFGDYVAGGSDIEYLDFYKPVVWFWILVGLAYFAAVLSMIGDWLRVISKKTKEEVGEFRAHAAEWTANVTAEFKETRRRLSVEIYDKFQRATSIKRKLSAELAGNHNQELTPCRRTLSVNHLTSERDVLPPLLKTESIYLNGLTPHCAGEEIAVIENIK
Test: TREK-1 Thallium (Tl+) flux assay, Method 1
Assay type: cell-based
Conditions: TREK-1 Thallium (Tl+) flux assay; values without footnote *12 are Method 1
Outline: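 Readout: Thallos fluorescence ratio, taken 25 s post-thallium relative to the pre-thallium baseline average, then converted to % inhibition. Cells were CHO-K1 stably expressing human TREK-1, dye-loaded and exposed to test compound (vehicle 0.3% DMSO) for 10 min prior to thallium stimulation.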

Row | SMILES | IC50
1 | CC(=O)N1C[C@H]2C[C@H](n3ncc(Cl)c3C(=O)Nc3ncc(C#Cc4cccs4)cc3C)C[C@H]2C1 [Compound 110, 1-[(3aR,5s,6aS)-2-acetyloctahydrocyclopenta[c]pyrrol-5-yl]-4-chloro-N-{3-methyl-5-[(thiophen-2-yl)ethynyl]pyridin-2-yl}-1H-pyrazole-5-carboxamide] | 200 nM
2 | Cc1cc(C#Cc2cccs2)cnc1NC(=O)c1c(Cl)cnn1C1CCN(C(=O)C(C)C)CC1 [Compound 111, 4-chloro-1-(1-isobutyrylpiperidin-4-yl)-N-(3-methyl-5-(thiophen-2-ylethynyl)pyridin-2-yl)-1H-pyrazole-5-carboxamide] | 200 nM
3 | CC1(C(=O)N2CCC(n3ncc(Cl)c3C(=O)Nc3ncc(C#Cc4ccccc4)cc3F)CC2)CCC1 [Compound 112, 4-chloro-N-(3-fluoro-5-(phenylethynyl)pyridin-2-yl)-1-(1-(1-methylcyclobutane-1-carbonyl)piperidin-4-yl)-1H-pyrazole-5-carboxamide] | 200 nM
4 | CC(=O)N1CC2(CC(n3ncc(Cl)c3C(=O)Nc3ncc(C#Cc4ccccc4)cc3F)C2)C1 [Compound 113, 1-(2-acetyl-2-azaspiro[3.3]heptan-6-yl)-4-chloro-N-(3-fluoro-5-(phenylethynyl)pyridin-2-yl)-1H-pyrazole-5-carboxamide] | 200 nM
5 | Cc1cc(C#Cc2ccc(F)cc2)cnc1NC(=O)c1c(Cl)cnn1C1CC2(C1)CN(C(=O)C1CC1)C2 [Compound 115, 4-chloro-1-(2-(cyclopropanecarbonyl)-2-azaspiro[3.3]heptan-6-yl)-N-(5-((4-fluorophenyl)ethynyl)-3-methylpyridin-2-yl)-1H-pyrazole-5-carboxamide] | 200 nM
6 | Cc1cc(C#Cc2ccc(F)cc2)cnc1NC(=O)c1c(Cl)cnn1C1CC2(C1)CN(C(=O)C(C)C)C2 [Compound 116, 4-chloro-N-(5-((4-fluorophenyl)ethynyl)-3-methylpyridin-2-yl)-1-(2-isobutyryl-2-azaspiro[3.3]heptan-6-yl)-1H-pyrazole-5-carboxamide] | 200 nM
7 | CC(C)C(=O)N[C@H]1CC[C@H](n2ncc(Cl)c2C(=O)Nc2ncc(C#Cc3ccccc3)cc2F)CC1 [Compound 117] | 200 nM
8 | Cc1cc(C#Cc2ccccc2)cnc1NC(=O)c1c(Cl)cnn1C[C@@H]1CCN(C(=O)C(C)C)C[C@@H]1F [Compound 118, 4-chloro-1-(((3R,4S)-3-fluoro-1-isobutyrylpiperidin-4-yl)methyl)-N-(3-methyl-5-(phenylethynyl)pyridin-2-yl)-1H-pyrazole-5-carboxamide] | 200 nM
9 | Cc1cc(C#Cc2ccc(F)cc2)cnc1NC(=O)c1c(Cl)cnn1CC1(C#N)CCN(C(=O)C(C)C)CC1 [Compound 119, 4-chloro-1-((4-cyano-1-isobutyrylpiperidin-4-yl)methyl)-N-(5-((4-fluorophenyl)ethynyl)-3-methylpyridin-2-yl)-1H-pyrazole-5-carboxamide] | 200 nM
10 | CC(=O)N1CCC(n2ncc(Cl)c2C(=O)Nc2ncc(C#Cc3ccccc3)cc2F)C1 (centres unmarked) [Compound 121, 1-(1-acetylpyrrolidin-3-yl)-4-chloro-N-(3-fluoro-5-(phenylethynyl)pyridin-2-yl)-1H-pyrazole-5-carboxamide] | 210 nM
11 | CC(=O)N1CC(n2ncc(Cl)c2C(=O)Nc2ncc(C#Cc3ccccc3)cc2C)C1 [Compound 122, 1-(1-acetylazetidin-3-yl)-4-chloro-N-(3-methyl-5-(phenylethynyl)pyridin-2-yl)-1H-pyrazole-5-carboxamide] | 210 nM
12 | CC(=O)N1CCC(Cn2ncc(Cl)c2C(=O)Nc2ncc(C#Cc3cccs3)cc2C)CC1 [Compound 123, 1-((1-acetylpiperidin-4-yl)methyl)-4-chloro-N-(3-methyl-5-(thiophen-2-ylethynyl)pyridin-2-yl)-1H-pyrazole-5-carboxamide] | 210 nM
13 | CC(C)C(=O)N[C@H]1C[C@@H](n2ncc(Cl)c2C(=O)Nc2ncc(C#Cc3ccccc3)cc2F)C1 [Compound 124, 4-chloro-N-(3-fluoro-5-(phenylethynyl)pyridin-2-yl)-1-(cis-3-isobutyramidocyclobutyl)-1H-pyrazole-5-carboxamide] | 210 nM
14 | Cc1cc(C#Cc2ccc(F)cc2)cnc1NC(=O)c1c(Cl)cnn1[C@H]1CC[C@@H](NC(=O)C(C)C)CC1 [Compound 125, 4-chloro-N-(5-((4-fluorophenyl)ethynyl)-3-methylpyridin-2-yl)-1-(cis-4-isobutyramidocyclohexyl)-1H-pyrazole-5-carboxamide] | 210 nM
15 | Cc1cc(C#Cc2ccccc2)cnc1NC(=O)c1c(Cl)cnn1CC1(C#N)CCN(C(=O)OC(C)(C)C)CC1 [Compound 126, tert-butyl 4-((4-chloro-5-((3-methyl-5-(phenylethynyl)pyridin-2-yl)carbamoyl)-1H-pyrazol-1-yl)methyl)-4-cyanopiperidine-1-carboxylate] | 210 nM
16 | Cc1cc(C#Cc2ccccc2)cc(F)c1NC(=O)c1c(Cl)cnn1CC1(C#N)CC1 [Compound 127, 4-chloro-1-((1-cyanocyclopropyl)methyl)-N-(2-fluoro-6-methyl-4-(phenylethynyl)phenyl)-1H-pyrazole-5-carboxamide] | 220 nM
17 | CC(=O)N1CC[C@H](n2ncc(Cl)c2C(=O)Nc2ncc(C#Cc3ccccc3)cc2C)C1 [Compound 128, (S)-1-(1-acetylpyrrolidin-3-yl)-4-chloro-N-(3-methyl-5-(phenylethynyl)pyridin-2-yl)-1H-pyrazole-5-carboxamide] | 220 nM
18 | CC(=O)N1CC[C@H](n2ncc(Cl)c2C(=O)Nc2ncc(C#Cc3ccccc3)cc2F)C1 [Compound 129, (S)-1-(1-acetylpyrrolidin-3-yl)-4-chloro-N-(3-fluoro-5-(phenylethynyl)pyridin-2-yl)-1H-pyrazole-5-carboxamide] | 220 nM
19 | O=C(Nc1ncc(C#Cc2ccccc2)cc1F)c1c(Cl)cnn1C1CCN(C(=O)C2CC2)CC1 [Compound 130, 4-chloro-1-(1-(cyclopropanecarbonyl)piperidin-4-yl)-N-(3-fluoro-5-(phenylethynyl)pyridin-2-yl)-1H-pyrazole-5-carboxamide] | 220 nM
20 | CC(=O)N1CCCC(n2ncc(Cl)c2C(=O)Nc2ncc(C#Cc3ccccc3)cc2C)CC1 (centres unmarked) [Compound 131, 1-(1-acetylazepan-4-yl)-4-chloro-N-(3-methyl-5-(phenylethynyl)pyridin-2-yl)-1H-pyrazole-5-carboxamide] | 220 nM
21 | CCNC(=O)N1C[C@H]2C[C@H](n3ncc(Cl)c3C(=O)Nc3ncc(C#Cc4cccc(F)c4)cc3C)C[C@H]2C1 [Compound 132, (3aR,5s,6aS)-5-[4-chloro-5-({5-[(3-fluorophenyl)ethynyl]-3-methylpyridin-2-yl}carbamoyl)-1H-pyrazol-1-yl]-N-ethylhexahydrocyclopenta[c]pyrrole-2(1H)-carboxamide] | 220 nM
22 | CC(=O)N1CCC(CCn2ncc(Cl)c2C(=O)Nc2ncc(C#Cc3cccc(F)c3)cc2C)CC1 [Compound 133, 1-(2-(1-acetylpiperidin-4-yl)ethyl)-4-chloro-N-(5-((3-fluorophenyl)ethynyl)-3-methylpyridin-2-yl)-1H-pyrazole-5-carboxamide] | 220 nM
23 | CC(C)(C)OC(=O)N1CCC(F)(Cn2ncc(Cl)c2C(=O)Nc2ncc(C#Cc3ccccc3)cc2F)CC1 [Compound 134, tert-butyl 4-((4-chloro-5-((3-fluoro-5-(phenylethynyl)pyridin-2-yl)carbamoyl)-1H-pyrazol-1-yl)methyl)-4-fluoropiperidine-1-carboxylate] | 220 nM
24 | CC(=O)N1CC(Cn2ncc(Cl)c2C(=O)Nc2ncc(C#Cc3ccccc3)cc2C)C1 [Compound 135, 1-((1-acetylazetidin-3-yl)methyl)-4-chloro-N-(3-methyl-5-(phenylethynyl)pyridin-2-yl)-1H-pyrazole-5-carboxamide] | 220 nM
25 | Cc1cc(C#Cc2ccccc2)cnc1NC(=O)c1c(Cl)cnn1C1CCN(C(=O)C(C)C)C1 (centres unmarked) [Compound 136, 4-chloro-1-(1-isobutyrylpyrrolidin-3-yl)-N-(3-methyl-5-(phenylethynyl)pyridin-2-yl)-1H-pyrazole-5-carboxamide] | 220 nM
26 | CCC(=O)N1CC(n2ncc(Cl)c2C(=O)Nc2ncc(C#Cc3ccccc3)cc2C)C1 [Compound 137, 4-chloro-N-(3-methyl-5-(phenylethynyl)pyridin-2-yl)-1-(1-propionylazetidin-3-yl)-1H-pyrazole-5-carboxamide] | 220 nM
27 | Cc1cc(C#Cc2ccc(F)cc2)cnc1NC(=O)c1c(Cl)cnn1C1CC2(C1)CN(C(=O)C1COCCO1)C2 (centres unmarked) [Compound 138, 1-(2-(1,4-dioxane-2-carbonyl)-2-azaspiro[3.3]heptan-6-yl)-4-chloro-N-(5-((4-fluorophenyl)ethynyl)-3-methylpyridin-2-yl)-1H-pyrazole-5-carboxamide] | 220 nM
28 | O=C(Nc1ncc(C#Cc2cccs2)cc1F)c1c(Cl)cnn1C1CCN(C(=O)C2CC2)CC1 [Compound 139, 4-chloro-1-(1-(cyclopropanecarbonyl)piperidin-4-yl)-N-(3-fluoro-5-(thiophen-2-ylethynyl)pyridin-2-yl)-1H-pyrazole-5-carboxamide] | 220 nM
29 | N#CC1(Cn2ncc(Cl)c2C(=O)Nc2ncc(C#Cc3ccccc3)cc2F)CC1 [Compound 141, 4-chloro-1-((1-cyanocyclopropyl)methyl)-N-(3-fluoro-5-(phenylethynyl)pyridin-2-yl)-1H-pyrazole-5-carboxamide] | 230 nM
